Laboratory results reported in PubChem BioAssay AID330 (DTP/NCI, 2004).
“And” between values parts separate entries of the source, which are not always exact repeats. Equal entries are not always repeated. Inconclusive results and toxic doses are left out.

Test system: P388 leukemia ip, CD2F1 mice, survival T/C
Experiment: NCI In Vivo Anticancer Drug Screen. Data for tumor model P388 Leukemia (intraperitoneal) in CD2F1 (CDF1) mice
Details: endpoint: median survival time, higher = longer survival
Method in brief: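 Mice carrying the transplanted tumor received test compound or vehicle. Survival was recorded in each group, and the value is the treated-group measurement divided by that of the vehicle-treated control group.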

[1] = dose: 100.0 mg/kg/injection, schedule: Q01DX009 (ip), vehicle: saline with Tween-80
[2] = dose: 25.0 mg/kg/injection, schedule: Q01DX009 (ip), vehicle: saline with Tween-80
[3] = dose: 50.0 mg/kg/injection, schedule: Q01DX009 (ip), vehicle: saline with Tween-80
[4] = dose: 50.0 mg/kg/injection, schedule: Q01DX005 (ip), vehicle: saline with Tween-80
[5] = dose: 100.0 mg/kg/injection, schedule: Q01DX005 (ip), vehicle: saline with Tween-80
[6] = dose: 200.0 mg/kg/injection, schedule: Q01DX005 (ip), vehicle: saline with Tween-80
[7] = dose: 60.0 mg/kg/injection, schedule: Q01DX005 (ip), vehicle: saline with Tween-80
[8] = dose: 120.0 mg/kg/injection, schedule: Q01DX005 (ip), vehicle: saline with Tween-80
[9] = dose: 240.0 mg/kg/injection, schedule: Q01DX005 (ip), vehicle: saline with Tween-80

C=C[CH2][Sn]([c]1ccccc1)([c]1ccccc1)[c]1ccccc1
T/C (dose: 6.25 mg/kg/injection, schedule: Q04DX003 (ip), vehicle: saline with Tween-80): 92 % of control
T/C (dose: 12.5 mg/kg/injection, schedule: Q04DX003 (ip), vehicle: saline with Tween-80): 100 % of control
T/C (dose: 25.0 mg/kg/injection, schedule: Q04DX003 (ip), vehicle: saline with Tween-80): 101 % of control

O=C(/C=C/c1ccc(OCC2CO2)cc1)c1cc2ccccc2nc1Cl (stereo not drawn)
T/C (dose: 100.0 mg/kg/injection, schedule: Q04DX002 (ip), vehicle: saline with Tween-80): 100 % of control
T/C (dose: 200.0 mg/kg/injection, schedule: Q04DX002 (ip), vehicle: saline with Tween-80): 100 % of control
T/C (dose: 400.0 mg/kg/injection, schedule: Q04DX002 (ip), vehicle: saline with Tween-80): 100 % of control

CC(=O)NCc1cc(C)c(CBr)cc1CBr
T/C (dose: 0.78 mg/kg/injection, schedule: Q01DX009 (ip), vehicle: distilled water + Tween-80): 103 % of control
T/C (dose: 1.56 mg/kg/injection, schedule: Q01DX009 (ip), vehicle: distilled water + Tween-80): 107 % of control
T/C (dose: 3.12 mg/kg/injection, schedule: Q01DX009 (ip), vehicle: distilled water + Tween-80): 109 % of control
T/C (dose: 6.25 mg/kg/injection, schedule: Q01DX009 (ip), vehicle: distilled water + Tween-80): 116 % of control
T/C (dose: 12.5 mg/kg/injection, schedule: Q01DX009 (ip), vehicle: distilled water + Tween-80): 93 % of control

Cc1ccc(C(=O)c2ccccc2C(=O)O)cc1N
T/C [1]: 100 % of control
T/C (dose: 100.0 mg/kg/injection, schedule: Q04DX003 (ip), vehicle: saline with Tween-80): 100 % of control
T/C (dose: 200.0 mg/kg/injection, schedule: Q01DX009 (ip), vehicle: saline with Tween-80): 100 % of control
T/C (dose: 200.0 mg/kg/injection, schedule: Q04DX003 (ip), vehicle: saline with Tween-80): 100 % of control
T/C (dose: 400.0 mg/kg/injection, schedule: Q01DX009 (ip), vehicle: saline with Tween-80): 100 % of control
T/C (dose: 400.0 mg/kg/injection, schedule: Q04DX003 (ip), vehicle: saline with Tween-80): 108 % of control

O=C1CC(SC(=S)C2CCCC2=O)C(=O)O1 (stereo not drawn)
T/C (dose: 12.5 mg/kg/injection, schedule: Q01DX009 (ip), vehicle: saline with Tween-80): 109 % of control and 118 % of control
T/C [2]: 109 % of control and 118 % of control
T/C [3]: 118 % of control

NC(C(=O)O)C(=O)O
T/C [4]: 101 % of control
T/C [5]: 100 % of control
T/C [6]: 89 % of control

CN(C)CCNc1ccc(O)c2c1C(=O)c1ccccc1C2=O
T/C (dose: 5.0 mg/kg/injection, schedule: Q01DX009 (ip), vehicle: acid diluted with saline): 104 % of control
T/C (dose: 10.0 mg/kg/injection, schedule: Q01DX009 (ip), vehicle: acid diluted with saline): 100 % of control
T/C (dose: 20.0 mg/kg/injection, schedule: Q01DX009 (ip), vehicle: acid diluted with saline): 100 % of control
T/C (dose: 20.0 mg/kg/injection, schedule: Q01DX009 (ip), vehicle: distilled water + Tween-80): 110 % of control
T/C (dose: 40.0 mg/kg/injection, schedule: Q01DX009 (ip), vehicle: acid diluted with saline): 124 % of control
T/C (dose: 40.0 mg/kg/injection, schedule: Q01DX009 (ip), vehicle: distilled water + Tween-80): 117 % of control
T/C (dose: 80.0 mg/kg/injection, schedule: Q01DX009 (ip), vehicle: acid diluted with saline): 153 % of control
T/C (dose: 160.0 mg/kg/injection, schedule: Q01DX009 (ip), vehicle: distilled water + Tween-80): 153 % of control

Cn1c(N)c(C(=O)Cc2ccccc2)c(=O)n(C)c1=O
T/C (dose: 100.0 mg/kg/injection, schedule: Q04DX003 (ip), vehicle: Klucel (hydroxypropylcellulose) (HPC)): 109 % of control
T/C (dose: 200.0 mg/kg/injection, schedule: Q04DX003 (ip), vehicle: Klucel (hydroxypropylcellulose) (HPC)): 100 % of control
T/C (dose: 400.0 mg/kg/injection, schedule: Q04DX003 (ip), vehicle: Klucel (hydroxypropylcellulose) (HPC)): 109 % of control

C1O[C@@H]1[C@H]1CO1
T/C (dose: 6.25 mg/kg/injection, schedule: Q01DX009 (ip), vehicle: saline): 104 % of control
T/C (dose: 6.25 mg/kg/injection, schedule: Q04DX003 (ip), vehicle: saline): 120 % of control
T/C (dose: 12.5 mg/kg/injection, schedule: Q01DX009 (ip), vehicle: saline): 109 % of control
T/C (dose: 12.5 mg/kg/injection, schedule: Q04DX003 (ip), vehicle: saline): 120 % of control
T/C (dose: 25.0 mg/kg/injection, schedule: Q01DX009 (ip), vehicle: saline): 157 % of control
T/C (dose: 25.0 mg/kg/injection, schedule: Q04DX003 (ip), vehicle: saline): 100 % of control

Cc1noc2nc(-c3ccccc3)cc(N3CCN(C)CC3)c12
T/C (dose: 12.5 mg/kg/injection, schedule: Q01DX005 (ip), vehicle: other): 107 % of control
T/C (dose: 25.0 mg/kg/injection, schedule: Q01DX005 (ip), vehicle: other): 97 % of control
T/C (dose: 50.0 mg/kg/injection, schedule: Q01DX005 (ip), vehicle: other): 97 % of control
T/C (dose: 100.0 mg/kg/injection, schedule: Q01DX005 (ip), vehicle: other): 101 % of control
T/C (dose: 200.0 mg/kg/injection, schedule: Q01DX005 (ip), vehicle: other): 104 % of control

CC(=O)Oc1c2c(c(OC(C)=O)c3ccccc13)C(=O)C(O)C(C)O2 (stereo not drawn)
T/C (dose: 100.0 mg/kg/injection, schedule: Q01DX001 (ip), vehicle: Klucel (hydroxypropylcellulose) (HPC)): 102 % of control
T/C (dose: 200.0 mg/kg/injection, schedule: Q01DX001 (ip), vehicle: Klucel (hydroxypropylcellulose) (HPC)): 96 % of control
T/C (dose: 400.0 mg/kg/injection, schedule: Q01DX001 (ip), vehicle: Klucel (hydroxypropylcellulose) (HPC)): 100 % of control

CC(C)[NH-].CC(C)[NH-].[Cl][Pt+2]([Cl])([Cl])[Cl]
T/C (dose: 22.0 mg/kg/injection, schedule: Q01DX009 (ip), vehicle: saline with Tween-80): 155 % of control
T/C (dose: 33.0 mg/kg/injection, schedule: Q01DX009 (ip), vehicle: saline with Tween-80): 165 % of control
T/C [3]: 152 % of control

O=C1C=CC(=O)N1CC[P+](c1ccccc1)(c1ccccc1)c1ccccc1
T/C (dose: 0.78 mg/kg/injection, schedule: Q01DX009 (ip), vehicle: water): 118 % of control
T/C (dose: 1.56 mg/kg/injection, schedule: Q01DX009 (ip), vehicle: water): 102 % of control
T/C (dose: 3.13 mg/kg/injection, schedule: Q01DX009 (ip), vehicle: water): 106 % of control
T/C (dose: 6.25 mg/kg/injection, schedule: Q01DX009 (ip), vehicle: water): 105 % of control
T/C (dose: 12.5 mg/kg/injection, schedule: Q01DX009 (ip), vehicle: water): 112 % of control
T/C (dose: 25.0 mg/kg/injection, schedule: Q01DX009 (ip), vehicle: water): 112 % of control and 120 % of control

c1cc2c(c(-c3nccc4c3CCCC4)n1)CCCC2
T/C [4]: 109 % of control
T/C [5]: 109 % of control
T/C [6]: 93 % of control

Cl.O=C([O-])C1C[SH+]C(C(O)C(O)C(O)C(O)CO)N1.O=C([O-])C1C[SH+]C(C(O)C(O)C(O)C(O)CO)N1.[Pd+2] (stereo not drawn)
T/C (dose: 100.0 mg/kg/injection, schedule: Q01DX001 (ip), vehicle: saline): 103 % of control
T/C (dose: 200.0 mg/kg/injection, schedule: Q01DX001 (ip), vehicle: saline): 104 % of control
T/C (dose: 400.0 mg/kg/injection, schedule: Q01DX001 (ip), vehicle: saline): 95 % of control

C=CC1(C)CC(C)=NC1C(=O)c1c[nH]c2ccccc12 (stereo not drawn)
T/C (dose: 12.5 mg/kg/injection, schedule: Q01DX005 (ip), vehicle: DMSO): 100 % of control
T/C (dose: 25.0 mg/kg/injection, schedule: Q01DX005 (ip), vehicle: DMSO): 97 % of control
T/C (dose: 50.0 mg/kg/injection, schedule: Q01DX005 (ip), vehicle: DMSO): 90 % of control
T/C (dose: 100.0 mg/kg/injection, schedule: Q01DX005 (ip), vehicle: DMSO): 94 % of control
T/C (dose: 200.0 mg/kg/injection, schedule: Q01DX005 (ip), vehicle: DMSO): 90 % of control

CCOC(=O)C(F)C(Br)C(=O)OCC (stereo not drawn)
T/C [2]: 105 % of control and 120 % of control
T/C [3]: 117 % of control
T/C [1]: 123 % of control

CC(=O)/C(=N/O)C(C)=NCc1ccccc1
T/C (dose: 100.0 mg/kg/injection, schedule: Q01DX009 (ip), vehicle: Klucel (hydroxypropylcellulose) (HPC)): 88 % of control

COc1ccc(-c2cc3cc(OC)c(OC)cc3c(-c3ccccc3)n2)cc1OC
T/C [7]: 98 % of control
T/C [8]: 95 % of control
T/C [9]: 90 % of control

Nc1cc(=O)n(Cc2ccccc2)c(N)c1C(=O)NCc1ccccc1
T/C [7]: 106 % of control
T/C [8]: 98 % of control
T/C [9]: 100 % of control
